The source of these data is patent US10787448B2, “Indolizino [3,2-C] quinoline-based fluorescent probe” (SEOUL NATIONAL UNIVERSITY R & DB FOUNDATION, priority 2015, dated 2020).

pKd: −log10 of the molar value. “Also recorded” adds a separate entry of the source.

Data set [1] in a line: Photostability of fluorescence in aqueous solution or ethanol (natural light, blue light). In kind it is physicochemical. Conditions: aqueous solution, blue light for 2 hours. As to the method: As a candidate material that can be applied to a fluorescent probe, to confirm how long fluorescence persists in materials with high fluorescence intensity in an aqueous solution among the indolizino[3,2-c]quinoline compounds, photostability according to time in an aqueous solution or ethanol solvent was evaluated as follows.
First, fluorescence of a corresponding material was measured using a cuvette, and the fluorescence per time for the cuvette sample was remeasured until 6 to 7 hours in a natural light state so as to confirm fluorescence stability.
Further, from the above example, when the indolizino[3,2-c]quinoline compounds including the IQ 3, 4, 6 and 8 compounds in which the fluorescence is stably maintained in an aqueous solution for approximately 6 hours are represented by Formula X, some materials in which neither A, B, C nor D ring has a substituent were selected and irradiated with blue light in an aqueous solution, and then a stability experiment was carried out to confirm the maintenance of the fluorescence.

Data set [2] has as its target Human Serum Albumin (HSA) (Homo sapiens, UniProt P02768). Kind of data set: Protein binding by fluorescence change (FRET, Job's plot, titration, quantum yield). The procedure:
Using a fluorescence spectrophotometer, it was confirmed whether the indolizino[3,2-c]quinoline compound of the present invention binds to a protein. Specifically, among the indolizino[3,2-c]quinoline compounds, 13 types of compounds with high fluorescence in a Tris buffer (pH 7.5) were added to Bovine Serum Albumin (BSA) and Human Serum Albumin (HSA) to observe a fluorescence change.

The test system of data set [3] is HeLa cells. Put plainly: Cell permeability: fluorescence imaging and live cell confocal imaging. Type of data set: cell-based. As to conditions: for co-localization with LysoTracker: live-cell confocal imaging, IQ 56 green, IQ 57 blue wavelength; for detection with yellow and red wavelength filters: live HeLa cells, ex 514 nm, em 519 nm and ex 561 nm, em 566 nm. The procedure: HeLa cells were seeded in a 96-well plate and incubated for 24 hours. The cells were treated with the indolizino[3,2-c]quinoline compounds, and incubated at 37° C. under a 5% CO2 condition for 30 minutes. After removal of the medium, the cells were washed with 1×DPBS. The washed cells were fixed with 4% formaldehyde at room temperature for 10 minutes, and washed with 1×DPBS. A cell image was screened using an Operetta HTS imaging system (PerkinElmer).
After HeLa cells were seeded to account for 70 to 80% of the area of a confocal dish (SPL life science) and overnight cultured, the indolizino[3,2-c]quinoline compounds (10 μM) prepared by mixing fresh DMEM after removal of the existing DMEM medium were dispensed, and the cells were incubated for 30 minutes to 1 hour at 37° C. Afterward, if needed, LysoTracker (50 nM) was mixed with DMEM to remove the existing medium and then dispensed to the cells, and the cells were incubated for 30 minutes at 37° C. After incubation, without washing, the cells were examined by a confocal laser microscope (Leica TCS SP8 SMD, Leica, Mannheim, Germany). However, when co-stained with a LysoTracker, the cells were washed with DPBS twice before the microscopy. […]

Data set [4] is described as follows: Analysis of optical characteristics (absorption, fluorescence emission, quantum yield) in solvents. In kind it is physicochemical. As to conditions: for λex(nm): Table 7; for Fluorescence Emission Intensity / Peak emission wavelength λmax em(nm) / Relative fluorescence Emission Intensitynorm: H2O at 2 μM; for Peak emission wavelength λmax em(nm): excited at the longest absorption maxima; for Relative fluorescence Emission Intensitynorm: normalized fluorescence intensity. As to the method:
Fluorescence emission spectra were obtained at 20° C. using a JASCO FP-6500 spectrofluorometer, a 10 mM stock solution prepared by dissolving an indolizino[3,2-c]quinoline compound in DMSO was diluted in a solvent. […] Absorption spectra were recorded at room temperature using a Perkin Elmer Lamda 20 UV/VIS spectrometer. […]
Further, the compounds (excluding Entry #51-57, etc.) of Formula 1 were subjected to spectrum analyses in various solvents, and the results are shown in Tables 6 and 7, and FIGS. 5C and 5D.

Data set [5] has as its system DNA oligomers (48 bp) tetO sequences. Put plainly: Binding to DNA by fluorescence spectrophotometer. As to conditions: hybridized tetO DNA oligomers added, 1 minute incubation. As to the method:
Using a fluorescence spectrophotometer, it was confirmed whether the indolizino[3,2-c]quinoline compound of the present invention binds to DNA. First, DNA oligomers (48 bp) used in the experiment are tetO sequences, and the base sequences thereof are as follows.
The same molarities of oligomers were mixed while being heated at 95° C. for 5 minutes and cooled to room temperature for 2 hours to hybridize, the fluorescence of each of the indolizino[3,2-c]quinoline compounds of the present invention was measured, a corresponding equivalent of DNA oligomer was added to a cuvette, and then incubated while blocking light for 1 minute to measure fluorescence again.

Sequence of Human Serum Albumin (HSA) (P02768 25-609): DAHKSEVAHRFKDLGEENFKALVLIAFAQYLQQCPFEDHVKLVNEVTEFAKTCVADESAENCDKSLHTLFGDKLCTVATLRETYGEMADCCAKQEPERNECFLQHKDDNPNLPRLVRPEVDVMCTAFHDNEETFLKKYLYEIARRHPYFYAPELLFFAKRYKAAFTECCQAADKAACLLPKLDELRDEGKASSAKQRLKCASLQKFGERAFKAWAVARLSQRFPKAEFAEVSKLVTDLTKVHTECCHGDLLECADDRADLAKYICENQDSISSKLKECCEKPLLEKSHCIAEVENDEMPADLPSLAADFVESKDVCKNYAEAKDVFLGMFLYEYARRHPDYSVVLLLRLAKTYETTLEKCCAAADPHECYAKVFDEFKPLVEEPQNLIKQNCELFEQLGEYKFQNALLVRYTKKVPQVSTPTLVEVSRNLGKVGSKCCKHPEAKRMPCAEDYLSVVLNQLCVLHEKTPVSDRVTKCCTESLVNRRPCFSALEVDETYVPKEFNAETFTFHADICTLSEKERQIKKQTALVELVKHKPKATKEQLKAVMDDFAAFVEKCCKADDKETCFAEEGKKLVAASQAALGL

For the molecule `c1ccc(-c2nc3ccccc3c3cc4ccccn4c23)nc1` [IQ 5, 6-(pyridin-2-yl)indolizino[3,2-c]quinoline], the “stability of fluorescence under irradiation with blue light” value in data set [1] is on record as “still stably exhibited fluorescence intensity”.
Consider `COc1cc(OC)cc(-c2nc3ccccc3c3cc4ccccn4c23)c1` [IQ 7, 6-(3,5-Dimethoxyphenyl)indolizino[3,2-c]quinoline], for which, in data set [2], the “fluorescence change on binding to HSA” value is recorded as “fluorescence intensity became higher than the fluorescence of the material; also recorded: increasing fluorescence intensity” and the “quantum yield (QY) when bound to HSA” value is 0.43. In data set [2] (excited at 280 nm), the “emission after adding 1 equiv. of the compound to HSA” value is on record as “approximately 450 nm” and the “emission of the compound” value is on record as “approximately 500 nm”. For the same molecule, the “FRET with HSA” value in data set [2] (excited at 280 nm, 1 equiv. of compound) is “fluorescence resonance energy transfer (FRET) phenomenon occurred”. The molecule further showed a negative logarithm of the Kd (pKd) in data set [2] (titration) of 5.72. In data set [3] (HeLa cells), the “intracellular organelles in which fluorescence is detected” value (“intracellular organelles” for short) was “stained intensively in the nuclear area”.
For `c1ccc2c(-c3nc4ccccc4c4cc5ccccn5c34)cccc2c1` [IQ 9, 6-(naphthalen-1-yl)indolizino[3,2-c]quinoline], the “fluorescence change on binding to HSA” value in data set [2] was “increasing fluorescence intensity”. Also, in data set [4], the “fluorescence (intensity, in words)” value is given as “strong fluorescence” and the “solvent-dependent (environment-sensitive) tendency of the emission” value is listed as “solvatochromic effect”. In addition, the “peak emission (λmax)” value in data set [4] (aqueous solution (H2O)) came to 465.5 nm. Besides, the “peak emission (λmax)” value in data set [4] (ethanol solvent (EtOH)) was determined as 516 nm. This molecule returned a quantum yield in data set [4] (in ethanol using coumarin 153 as a standard) of 0.402.
In the case of `c1ccc2cc(-c3nc4ccccc4c4cc5ccccn5c34)ccc2c1` [IQ 10, 6-(naphthalen-2-yl)indolizino[3,2-c]quinoline], the “fluorescence change on binding to HSA” value in data set [2] was “increasing fluorescence intensity”.
For the molecule `COc1ccc(-c2nc3ccccc3c3cc4c(C)cccn4c23)cc1OC` [IQ 17, 6-(3,4-dimethoxyphenyl)-11-methylindolizino[3,2-c]quinoline], in data set [2], the “fluorescence change on binding to HSA” value is listed as “increasing fluorescence intensity” and the “quantum yield (QY) when bound to HSA” value is 0.4. Also, in data set [3] (HeLa cells), the intracellular molecule recognized entry is on record as “recognized DNA” and the “intracellular organelles” value is recorded as “stained intensively in the nuclear area”.
As to `COc1ccc(-c2nc3ccccc3c3c(Cl)c4ccccn4c23)cc1` [IQ 40, 12-chloro-6-(4-methoxyphenypindolizino[3,2-c]quinoline], the “fluorescence change on binding to HSA” value in data set [2] was “increasing fluorescence intensity”.
On to `COc1ccc(-c2nc3ccccc3c3cc4ccccn4c23)cc1CN1CCOCC1` [IQ 56, 4-(5-(indolizino[3,2-c]quinolin-6-yl)-2-methoxybenzyl)morpholine], for which the “intracellular organelles” value in data set [3] (HeLa cells) is recorded as “intensively distributed in the lysosomal area”. The “co-localization with LysoTracker” value in data set [3] is “co-localized with the commercially available marker LysoTracker”.
On to `CCOC(=O)c1c2c3ccccc3nc(-c3ccc(OC)c(CN4CCOCC4)c3)c2n2ccccc12` [IQ 57, ethyl 6-(4-methoxy-3-(morpholinomethyl)phenyl)indolizino[3,2-c]quinoline-12-carboxylate], for which the “intracellular organelles” value in data set [3] (HeLa cells) is “intensively distributed in the lysosomal area”. The “co-localization with LysoTracker” value in data set [3] is reported as “co-localized with the commercially available marker LysoTracker”.
As to `COc1ccc(-c2ccn3c(c2)cc2c4ccccc4nc(-c4ccc(OC)cc4)c23)cc1` [IQ-B26, 6,10-bis(4-methoxyphenyl)indolizino[3,2-c]quinoline], in data set [3], the “detection with yellow and red wavelength filters” value is reported as “detected”.
As to `COc1ccc(-c2nc3ccccc3c3cc4cc(-c5ccc(/C=C/C=O)cc5)ccn4c23)cc1` [IQ-B31, (E)-3-(4-(6-(4-methoxyphenyl)indolizino[3,2-c]quinolin-10-yl)phenyl)acrylaldehyde], in data set [4], the “λex(nm)” value is reported as 440 nm. Further, the “detection with yellow and red wavelength filters” value in data set [3] is “detected”.
For `COc1ccc(-c2nc3ccccc3c3cc4cc(-c5ccc(N(C)C)cc5)ccn4c23)cc1` [IQ-B37, 4-(6-(4-methoxyphenyl)indolizino[3,2-c]quinolin-10-yl)-N,N-dimethylaniline], in that order: 432 nm and “detected”.
In the case of `COc1ccc(-c2nc3ccccc3c3cc4c(C)cccn4c23)cc1OC` [compound 17], in data set [4], the “Maximum absorption wavelength λmax abs(nm)” value turned out to be 391 nm, the “Fluorescence Emission Intensity” value is reported as 31.7, the “Peak emission wavelength λmax em(nm)” value is given as 524.5 nm and the “Relative fluorescence Emission Intensitynorm” value is 0.14. In addition, the “quantum yield (Φ)” value in data set [4] (DW, standard Rhodamine 6G) was 0.065. Besides, the “quantum yield (Φ)” value in data set [4] (EtOH, standard Coumarin 153) came to 0.604. In addition, the “shift of maximum emission wavelength on addition of DNA oligomer” value (from here on “shift of maximum emission wavelength”) in data set [5] was “wavelength to longer wavelength”.
For the molecule `Cc1cccn2c1cc1c3ccccc3nc(-c3ccco3)c12` [compound 18], in data set [4], the “Maximum absorption wavelength λmax abs(nm)” value worked out at 400 nm, the “Fluorescence Emission Intensity” value was determined as 15.0, the “Peak emission wavelength λmax em(nm)” value is recorded as 523.5 nm and the “Relative fluorescence Emission Intensitynorm” value came to 0.06. Further, the “quantum yield (Φ)” value in data set [4] (DW, standard Rhodamine 6G) was determined as 0.008. Moreover, the “quantum yield (Φ)” value in data set [4] (EtOH, standard Coumarin 153) is recorded as 0.421. Besides, the “shift of maximum emission wavelength” value in data set [5] is given as “wavelength to shorter wavelength”.
Turning to `COC(=O)c1c2c3ccccc3nc(-c3cc(OC)cc(OC)c3)c2n2ccccc12` [compound 19], in data set [4] (DW, standard Rhodamine 6G), the “quantum yield (Φ)” value is reported as 0.060. Moreover, the “quantum yield (Φ)” value in data set [4] (EtOH, standard Coumarin 153) amounted to 0.222. Also, in data set [4], the “Fluorescence Emission Intensity” value worked out at 80.5, the “Peak emission wavelength λmax em(nm)” value was 478 nm and the “Relative fluorescence Emission Intensitynorm” value was 0.35. Besides, in data set [5], the “shift of maximum emission wavelength” value was “wavelength to shorter wavelength”.
For the molecule `CN(C)c1ccc(-c2nc3ccccc3c3cc4ccccn4c23)cc1` [compound 36], the “quantum yield (Φ)” value in data set [4] (DW, standard Rhodamine 6G) was 0.006; in data set [4] (EtOH, standard Coumarin 153), 0.386. In addition, the “shift of maximum emission wavelength” value in data set [5] was “wavelength to longer wavelength”.
In the case of `CCN(CC)c1ccc(-c2nc3ccccc3c3cc4ccccn4c23)cc1` [compound 37], the “quantum yield (Φ)” value in data set [4] (DW, standard Rhodamine 6G) is listed as 0.001; in data set [4] (EtOH, standard Coumarin 153) it was 0.324. Further, the “shift of maximum emission wavelength” value in data set [5] is “wavelength to longer wavelength”.
For the molecule `COc1ccc(-c2nc3ccccc3c3c(Cl)c4ccccn4c23)cc1` [compound 40], the “quantum yield (Φ)” value in data set [4] (DW, standard Rhodamine 6G) is given as 0.142; in data set [4] (EtOH, standard Coumarin 153) it was 0.624. Moreover, the “change in fluorescence intensity on addition of DNA oligomer” value (“change in fluorescence intensity” for short) in data set [5] is on record as “Increase in fluorescence intensity”.
Regarding `c1csc(-c2nc3ccccc3c3cc4ccccn4c23)c1` [compound 42], in data set [5], the “shift of maximum emission wavelength” value is given as “wavelength to shorter wavelength”.
For `COC(=O)c1c2c3ccccc3nc(-c3cccs3)c2n2ccccc12` [compound 44], the “quantum yield (Φ)” value in data set [4] (DW, standard Rhodamine 6G) turned out to be 0.010; in data set [4] (EtOH, standard Coumarin 153), 0.050. Further, in data set [5], the “shift of maximum emission wavelength” value is on record as “wavelength to shorter wavelength”.
As to `COc1ccc(-c2nc3ccccc3c3c(-c4ccc(F)cc4)c4ccccn4c23)cc1` [compound 45], the “quantum yield (Φ)” value in data set [4] (DW, standard Rhodamine 6G) was found to be 0.033; in data set [4] (EtOH, standard Coumarin 153), 0.557. Moreover, in data set [5], the “change in fluorescence intensity” value is recorded as “No change in fluorescence intensity”.
On to `COc1ccc(-c2nc3ccccc3c3c(-c4ccc(Cl)cc4)c4ccccn4c23)cc1` [compound 46], for which the “quantum yield (Φ)” value in data set [4] (DW, standard Rhodamine 6G) is on record as 0.039; in data set [4] (EtOH, standard Coumarin 153), 0.604. Besides, the “change in fluorescence intensity” value in data set [5] is “No change in fluorescence intensity”.
